Reference: PubChem BioAssay (NCI)
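Test compounds were applied to cells in 96-well plates for 48 hours at 5 doses. TGI denotes the concentration required for complete inhibition of growth.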

Key:
Test in all cases: inhibition of tumour cell growth, NCI panel, 48 h
[1] = test system: ACHN renal
[2] = test system: HCC-2998 colon
[3] = test system: K-562 leukemia
[4] = test system: KM12 colon
[5] = test system: MALME-3M melanoma
[6] = test system: MDA-N
[7] = test system: NCI-H23 lung
[8] = test system: NCI-H522 lung
[9] = test system: SF-539 CNS
[10] = test system: SNB-75 CNS

| Structure (SMILES) | TGI [1] [µM] | TGI [2] [µM] | TGI [3] [µM] | TGI [4] [µM] | TGI [5] [µM] | TGI [6] [µM] | TGI [7] [µM] | TGI [8] [µM] | TGI [9] [µM] | TGI [10] [µM] |
| --- | --- | --- | --- | --- | --- | --- | --- | --- | --- | --- |
| CCOc1cnc(C(O)(c2ccccc2)c2ccccc2)o1 | > 100 | > 100 | > 100 | > 100 | > 100 | > 100 | > 100 | > 100 | > 100 | > 100 |
| O=C1CC(O)c2cscc21 (configuration not stated) | > 100 | > 100 | > 100 | > 100 | > 100 | > 100 | > 100 | > 100 | > 100 | > 100 |
| CC(=O)NC1C(OCC(=O)NCCNc2ccc([N+](=O)[O-])c3[nH]c4ccccc4c(=O)c23)C(O)C(CO)OC1(C)OCc1ccccc1 (configuration not stated) | > 100 | > 100 | > 100 | > 100 |  | > 100 | > 100 | > 100 | > 100 | > 100 |
| [B]C(=O)NC(CC(C)C)C(=O)NCC(=O)NC1c2ccsc2C(=O)C1O (configuration not stated) (tested in a mixture with another compound) | > 100 | > 100 | > 31.6 | > 100 | > 100 | > 100 | > 100 | > 100 | > 100 | > 100 |
| COC1(OC)CCc2c(sc3ncnc(Nc4cccc(Br)c4)c23)C1 | > 100 | > 100 | > 100 | > 100 | > 100 | > 100 | > 100 | 30.3 | > 100 | 83.2 |
| COC(=O)[C@H](Cc1ccccc1)NC(=O)c1ccc(CNC(=O)/C=C/c2csc(-c3ccccc3)n2)cc1 | 44 | 19.4 | > 31.9 | > 100 | 11.8 | 15.5 | > 87.4 | 13.7 | 13 | 42 |
| CCN1/C(=C/C#C/C(C)=C\c2sc3ccc(Cl)cc3[n+]2CC)Sc2ccc(Cl)cc21 | 14.8 | 17.6 |  | 19.4 | 6.84 | 12.9 |  | 6.02 | 16.1 | 9.98 |
| Cc1[nH]n(-c2nc3c(c(=O)[nH]2)CCCC3)c(=O)c1CCO | > 100 | > 100 | > 100 | > 100 | > 100 | > 100 | > 100 | > 100 | > 100 |  |
| COC1(OC)c2occc2C(=N)c2ccc(=O)oc21 | > 100 | > 100 | > 100 |  | 33.5 | > 100 | > 100 | > 100 | > 100 |  |
| Cc1cc2nc3c(C#N)c(-c4ccccc4)/c(=C\Nc4ccc(F)cc4)c(=O)n3c2cc1C | > 100 | > 100 |  | > 100 | > 100 | > 100 | > 100 | > 100 | > 100 | > 100 |
| Cc1nc2sc3cccc(Cl)c3n2c(=O)c1N=Nc1ccc(Cl)cc1 | > 100 |  | > 100 | > 100 | > 100 | > 100 | > 100 | > 100 | > 100 | > 100 |
